Measured values from ChEMBL document CHEMBL3734654, “Mutational mapping of the transmembrane binding site of the G-protein coupled receptor TGR5 and binding mode prediction of TGR5 agonists” (Eur J Med Chem, 2015).
Activity calls are given as the source filed them. The rule behind the calls is not given here.

Test system: T1, G-protein coupled bile acid receptor 1 (Homo sapiens), Q8TDU6 [E169A]
T1 sequence (whole entry): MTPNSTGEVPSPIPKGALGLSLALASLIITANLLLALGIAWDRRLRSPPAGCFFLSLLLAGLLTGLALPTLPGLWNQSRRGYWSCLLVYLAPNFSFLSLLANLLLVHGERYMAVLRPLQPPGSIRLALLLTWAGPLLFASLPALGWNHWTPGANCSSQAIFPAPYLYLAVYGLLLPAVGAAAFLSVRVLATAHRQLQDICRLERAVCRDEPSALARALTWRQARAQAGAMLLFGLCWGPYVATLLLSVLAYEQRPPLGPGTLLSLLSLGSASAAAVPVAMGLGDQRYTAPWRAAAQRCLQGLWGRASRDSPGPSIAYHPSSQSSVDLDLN
Assay: Agonist activity at human TGR5 E169A mutant expressed in HEK293 cells assessed as rise in intracellular cAMP level at 10 uM incubated for 16 hrs by luciferase reporter assay relative to wild type
Type: functional, cell-based

Activity: Active
Compound: C=C[C@@]1(C)CC(=O)[C@]2(O)[C@@]3(C)[C@@H](O)CCC(C)(C)[C@@H]3[C@H](O)[C@H](OC(C)=O)[C@@]2(C)O1
